The supplement of paper PMC4862054

Experiments:
Conditions in all cases: incubation time: 72 h
[1] = tested on: DU-4475; assay: normalised viability (% of control), CellTiter-Blue; higher = more viable cells (about 100 = DMSO control)
Method: (§1)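 DSRT, CellTiter-Blue viability, 72 h incubation. Signal is normalised to DMSO and benzethonium chloride controls. Value is the normalised response at dose 7.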

[2] = tested on: CAL-51; assay: as above
Method: as §1

[3] = tested on: HDQ-P1; assay: as above
Method: as §1

[4] = tested on: CAL-148; assay: as above
Method: as §1

[5] = tested on: MDA-MB-453; assay: as above
Method: as §1

[6] = tested on: CAL-85-1; assay: as above
Method: as §1

[7] = tested on: MDA-MB-231; assay: drug sensitivity score (DSS), CellTox Green (DSS (AUC-based score)); higher = stronger drug effect (viability inhibition or cytotoxicity); extreme values may be limits of the assay
Method in brief: (§2)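 For 72 h, breast cancer cell lines seeded at 20 µl suspension per well in 384-well plates were incubated with compound at 5 concentrations in 10-fold steps spanning a 10,000-fold range that differed by compound. The first reading was CellTox Green fluorescence at 485/520 nm, and the second was CellTiter-Glo luminescence after 10 min at room temperature. Both were normalised per plate to 0.1 % DMSO and a positive kill control, and the drug sensitivity score was obtained from the area under the fitted dose-response curve.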

[8] = tested on: HCC1937; assay: as above
Method in brief: as §2

[9] = tested on: HCC1143; assay: drug sensitivity score (DSS), CellTiter-Blue viability (DSS (AUC-based score)); higher = stronger viability inhibition; extreme values may be limits of the assay
Method: (§3)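 DSRT with the CellTiter-Blue (resazurin reduction) viability readout, fluorescence 560/590 nm, 72 h incubation. Plates were normalised to DMSO and benzethonium chloride controls. DSS is computed from the area under the fitted dose-response curve (5 or 9 concentrations).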

[10] = tested on: BT-549; assay: as above
Method: as §3

[11] = tested on: BT-474; assay: as above
Method: as §3

[12] = tested on: DU-4475; assay: as above
Method: as §3

[13] = tested on: HCC1937; assay: as above
Method: as §3

[14] = tested on: MFM-223; assay: as above
Method: as §3

[15] = tested on: CAL-51; assay: as above
Method: as §3

[16] = tested on: MDA-MB-436; assay: as above
Method: as §3

[17] = tested on: SK-BR-3; assay: as above
Method: as §3

[18] = tested on: MDA-MB-468; assay: as above
Method: as §3

[19] = tested on: HDQ-P1; assay: as above
Method: as §3

[20] = tested on: CAL-148; assay: as above
Method: as §3

[21] = tested on: MDA-MB-453; assay: as above
Method: as §3

[22] = tested on: CAL-85-1; assay: as above
Method: as §3

| Structure (SMILES) | normalised viability [1] [%] | normalised viability [2] [%] | normalised viability [3] [%] | normalised viability [4] [%] | normalised viability [5] [%] | normalised viability [6] [%] | drug sensitivity score [7] | drug sensitivity score [8] | other results |
| --- | --- | --- | --- | --- | --- | --- | --- | --- | --- |
| C=CCNC1=C2C[C@@H](C)C[C@H](OC)[C@H](O)[C@@H](C)/C=C(\C)[C@H](OC(N)=O)[C@@H](OC)/C=C\C=C(/C)C(=O)NC(=CC1=O)C2=O [Tanespimycin] (1000 nM) | 0.99 | 24.2 | 22.9 | 20.8 | 7.14 | 24.7 | – | – | – |
| C=CC[C@@H]1/C=C(\C)C[C@H](C)C[C@H](OC)[C@H]2O[C@@](O)(C(=O)C(=O)N3CCCC[C@H]3C(=O)O[C@H](/C(C)=C/[C@@H]3CC[C@@H](O)[C@H](OC)C3)[C@H](C)[C@@H](O)CC1=O)[C@H](C)C[C@@H]2OC [Tacrolimus] (1000 nM) | 115 | 96.6 | 111 | 103 | 108 | 95.4 | – | – | – |
| S=c1[nH]cnc2nc[nH]c12 [Mercaptopurine] (1000 nM) | 90.6 | 101 | 90.3 | 100 | 110 | 78.4 | – | – | – |
| CC(=O)O[C@]1(C(C)=O)CC[C@H]2[C@@H]3C=C(C)C4=CC(=O)CC[C@]4(C)[C@H]3CC[C@@]21C [Megestrol acetate] | – | – | – | – | – | – | 0 | 0 | – |
| Nc1nc(Cl)nc2c1ncn2[C@H]1C[C@H](O)[C@@H](CO)O1 [Cladribine] (100 nM) | 81 | 111 | 95.5 | 96.9 | 98.4 | 84.2 | – | – | – |
| O=C(c1ccc(C(=O)N2CCC(N3CCCC3)CC2)c(Nc2ccccc2)c1)N1CCC(N2CCCC2)CC1 [UNC1215] | – | – | – | – | – | – | 0 | 0 | – |
| COc1cc(Nc2ncc3c(n2)-c2ccc(Cl)cc2C(c2c(F)cccc2OC)=NC3)ccc1C(=O)O [Alisertib] | – | – | – | – | – | – | 8.87 | 1.76 | – |
| Cc1ccc(F)c(NC(=O)Nc2ccc(-c3cccc4[nH]nc(N)c34)cc2)c1 [Linifanib] | – | – | – | – | – | – | 0 | 0 | drug sensitivity score [9]: 0; drug sensitivity score [10]: 0; drug sensitivity score [11]: 0; drug sensitivity score [12]: 0; drug sensitivity score [13]: 0; drug sensitivity score [14]: 0; drug sensitivity score [15]: 0; drug sensitivity score [16]: 0; drug sensitivity score [17]: 0; drug sensitivity score [18]: 0; drug sensitivity score [19]: 0; drug sensitivity score [20]: 0; drug sensitivity score [21]: 0; drug sensitivity score [22]: 0 |
| CCN1CCN(c2ccc(Nc3cc(N(C)C(=O)Nc4c(Cl)c(OC)cc(OC)c4Cl)ncn3)cc2)CC1 [NVP-BGJ398] | – | – | – | – | – | – | 2.84 | 0 | – |
| COc1cccc2cc(-c3nc([C@H]4CC[C@H](C(=O)O)CC4)n4ncnc(N)c34)[nH]c12 [OSI-027] (1000 nM) | 68.1 | 61.8 | 39.3 | 65.1 | 37.5 | 61 | – | – | – |
| CC[C@]1(O)C[C@@H]2CN(CCc3c([nH]c4ccccc34)[C@@](C(=O)OC)(c3cc4c(cc3OC)N(C)[C@H]3[C@@](O)(C(=O)OC)[C@H](OC(C)=O)[C@]5(CC)C=CCN6CC[C@]43[C@@H]65)C2)C1 [Vinblastine] (100 nM) | 34.8 | 23.3 | 37.6 | 20.1 | 23.8 | 30.2 | – | – | – |
| Nc1ccn([C@@H]2O[C@H](CO)[C@@H](O)[C@@H]2O)c(=O)n1 [Cytarabine] (1000 nM) | 39.7 | 29.8 | 82.2 | 44.6 | 62.4 | 88.5 | – | – | – |
| CN1CCC(COc2cnc(-c3cccc(Cn4nc(-c5cccc(C#N)c5)ccc4=O)c3)nc2)CC1 (1000 nM) | 97.2 | 99.2 | 95 | 90.4 | 90.8 | 98.6 | – | – | – |
| Clc1ccc(C(c2ccccc2Cl)C(Cl)Cl)cc1 (configuration not stated) [Mitotane] | – | – | – | – | – | – | – | 1.4 | drug sensitivity score [9]: 0; drug sensitivity score [10]: 0; drug sensitivity score [11]: 0; drug sensitivity score [12]: 0; drug sensitivity score [13]: 0; drug sensitivity score [14]: 0; drug sensitivity score [15]: 0; drug sensitivity score [16]: 0; drug sensitivity score [17]: 0; drug sensitivity score [18]: 0; drug sensitivity score [19]: 0; drug sensitivity score [20]: 0; drug sensitivity score [21]: 0; drug sensitivity score [22]: 0 |
